Test results from US20260041744A1, “Methods for Treating Pompe Disease” (Amicus Therapeutics, Inc., priority 2022, published 2026).
Entries after “also recorded” stand apart in the source; their conditions may differ.

Tests used:
adult subjects with LOPD [1] = assay: Study ATB200-07 (OLE): Hex4; settings: for Hex4, mean BSL: Study ATB200-03 baseline, OLE-ES Population excluding Subject 4005-2511; for Hex4, mean 52-wk CFB: change from ATB200-03 baseline at Week 52; for Hex4, mean 52-wk CFB / Hex4, mean 104-wk CFB: OLE-ES excluding Subject 4005-2511; for Hex4, mean 104-wk CFB: change from ATB200-03 baseline at Week 104, alglucosidase alfa/placebo group switched to cipaglucosidase alfa/miglustat at Week 52
Method: (§3) The Phase III double-blind PROPEL study (NCT03729362; ATB200-03) described in Examples 9 and 10 above compared the investigational two-component therapy cipaglucosidase alfa/miglustat (cipa/mig) with alglucosidase alfa/placebo (alglu) in adults with late-onset Pompe disease (LOPD) over 52 weeks. The ongoing open-label extension (OLE) of PROPEL (NCT04138277; ATB200-07) evaluates long-term safety and efficacy of cipa/mig. Outcomes include 6 minute walk distance (6MWD), forced vital capacity (FVC), creatine kinase (CK) and hexose tetrasaccharide (Hex4) levels and safety. Data are reported as change from the PROPEL baseline to OLE week 52 (104 weeks after the PROPEL baseline).

adult subjects with LOPD [2] = assay: Study ATB200-07 (OLE): sitting % predicted FVC; assay type: in vivo, human; settings: for Sitting FVC, mean BSL: Study ATB200-03 baseline, OLE-ES Population excluding Subject 4005-2511; for Sitting FVC, mean 52-wk CFB: change from ATB200-03 baseline at Week 52; for Sitting FVC, mean 52-wk CFB / Sitting FVC, mean 104-wk CFB: OLE-ES excluding Subject 4005-2511; for Sitting FVC, mean 104-wk CFB: change from ATB200-03 baseline at Week 104, alglucosidase alfa/placebo group switched to cipaglucosidase alfa/miglustat at Week 52
Excerpt: (§1) The study doses and schedule are maintained from Study ATB200-03.
(§2) Efficacy data are presented in this summary as change from the baseline of Study ATB200-03 (OLE-ES Population).

adult subjects with LOPD [3] = assay: Study ATB200-07 (OLE): PROMIS-Physical Function; assay type: in vivo, human; settings: for PROMIS-Physical Function, mean BSL: Study ATB200-03 baseline, OLE-ES Population excluding Subject 4005-2511; for PROMIS-Physical Function, mean 52-wk CFB: change from ATB200-03 baseline at Week 52; for PROMIS-Physical Function, mean 52-wk CFB / PROMIS-Physical Function, mean 104-wk CFB: OLE-ES excluding Subject 4005-2511; for PROMIS-Physical Function, mean 104-wk CFB: change from ATB200-03 baseline at Week 104, alglucosidase alfa/placebo group switched to cipaglucosidase alfa/miglustat at Week 52
Excerpt: (§4) Analysis populations presented in this summary are 1) the OLE-ES Population (all subjects who satisfied the eligibility requirements (based on the inclusion and exclusion criteria) and entered Study ATB200-07 and 2) the OLE-FAS Population (all subjects who entered the OLE Study ATB200-07 who had both a valid ATB200-07 baseline and at least 1 post-baseline assessment for at least 1 of the 6 main efficacy endpoints [6MWD, sitting % predicted FVC, MMT-lower extremities, PROMIS-Physical Function, PROMIS-Fatigue, and GSGC]).

[4] = tested on: adult subjects with late-onset Pompe disease (LOPD); assay: Study ATB200-03: summary across primary, secondary and biomarker endpoints (incl. SVC, FVC supine, MIP, MEP, SNIP, MMT upper/overall, QMT, TUG); settings: ITT excluding outlier subject
Excerpt: • overall physical wellbeing • effort of breathing • muscle strength • muscle function • ability to move around • activities of daily living • energy level • level of muscular pain • actual value of the subject's functional status (improving, stable, or declining) at Week 52, as measured by the Physician's Global Impression of Change • change from baseline to Week 52 in the following measures of pulmonary function, as follows: • sitting FVC (% predicted) • MIP (cmH2O) • MIP (% predicted) • MEP (cmH2O) • MEP (% predicted) • SNIP (cmH2O)

Gaa KO mice = assay: Muscle biomarkers LAMP1, LC3, dysferlin in Gaa KO mice (staining, western blot); assay type: in vivo, mouse; settings: for LC3 II level / autophagy, western blot: mouse, in vivo
Method: The therapeutic effects of ATB200 and miglustat were evaluated and compared against those of Alglucosidase alfa in Gaa KO mice. For the study, male Gaa KO (3-to 4-month old) and age-matched wild-type (WT) mice were used. Alglucosidase alfa was administered via bolus tail vein intravenous (IV) injection. In the co-administration regimen, miglustat was administered via oral gavage (PO) 30 minutes prior to the IV injection of ATB200. Treatment was given biweekly. Treated mice were sacrificed after 14 days from the last administration and various tissues were collected for further analysis. Table 11 summarizes the study design:
Tissue samples were also analyzed for biomarker changes following the methods discussed in: Khanna R, et al. (2012), “The pharmacological chaperone AT2220 increases recombinant human acid α-glucosidase uptake and glycogen reduction in a mouse model of Pompe disease,” Plos One 7(7): e40776; and Khanna, R et al. (2014), “The Pharmacological Chaperone AT2220 Increases the Specific Activity and Lysosomal Delivery of Mutant Acid a-Glucosidase, and Promotes Glycogen Reduction in a Transgenic Mouse Model of Pompe Disease,” PLOS ONE 9(7): e102092.
Similarly, intense LC3-positive aggregates in the muscle fibers of untreated Gaa KO mice signify the presence of autophagic zones and autophagy build-up. […] A similar observation was made when the expression of LC3 was assessed using western blot. […] In comparison, the effect of alglucosidase alfa on autophagy was modest.
Dysferlin, a protein involved in membrane repair and whose deficiency/mistrafficking is associated with a number of muscular dystrophies, was also assessed.

[5] = tested on: adult subjects with late-onset Pompe disease (LOPD); assay: Study ATB200-03: global test and responder analyses on 6MWD, FVC, MMT; assay type: in vivo, human; settings: for Wilcoxon rank sum test on sum of ranks for 6MWD and % predicted FVC: Mean Score / Wilcoxon rank sum test on sum of ranks for 6MWD and % predicted FVC: Sum of Scores: Excluding Subject 4005-2511, 2-sided p 0.010; for Wilcoxon rank sum test on sum of ranks for 6MWD and % predicted FVC: Mean Score / Wilcoxon rank sum test on sum of ranks for 6MWD and % predicted FVC: Sum of Scores / Wilcoxon rank sum test on sum of ranks for 6MWD and FVC: Mean Score / Wilcoxon rank sum test on sum of ranks for 6MWD and FVC: Sum of Scores: change from baseline to Week 52; for Wilcoxon rank sum test on sum of ranks for 6MWD and FVC: Mean Score / Wilcoxon rank sum test on sum of ranks for 6MWD and FVC: Sum of Scores: ITT Population, 2-sided p 0.022
Excerpt: To support the interpretation of clinical benefit, a composite subject-level response was defined based on the totality of the treatment outcome data. Subjects were classified by an ordinal response variable consisting of significant improvement, moderate improvement, or minor/no improvement based on treatment outcomes.
Thresholds for clinically relevant changes for 6MWD and FVC in Pompe specifically are not well established, however a large body of data exists from other neuromuscular and chronic respiratory diseases, especially interstitial pulmonary fibrosis (IPF). […] Accordingly, these thresholds were applied to analyses of Study ATB200-03 data.
Additional post hoc patient-level analyses were conducted using these thresholds for 6MWD (±6%) and FVC (±3%) separately and combined.

adult subjects with LOPD [6] = assay: Study ATB200-07 (OLE): CK; settings: for CK, mean BSL: Study ATB200-03 baseline, OLE-ES Population excluding Subject 4005-2511; for CK, mean 52-wk CFB: change from ATB200-03 baseline at Week 52; for CK, mean 52-wk CFB / CK, mean 104-wk CFB: OLE-ES excluding Subject 4005-2511; for CK, mean 104-wk CFB: change from ATB200-03 baseline at Week 104, alglucosidase alfa/placebo group switched to cipaglucosidase alfa/miglustat at Week 52
Method: as §3

adult subjects with LOPD [7] = assay: Study ATB200-07 (OLE of PROPEL): 6MWD and % predicted 6MWD; assay type: in vivo, human; settings: for 6MWD, mean BSL: Study ATB200-03 baseline, OLE-ES Population excluding Subject 4005-2511; for 6MWD, mean 52-wk CFB: change from ATB200-03 baseline at Week 52 (= ATB200-07 baseline); for 6MWD, mean 52-wk CFB / 6MWD, mean 104-wk CFB: OLE-ES excluding Subject 4005-2511; for 6MWD, mean 104-wk CFB: change from ATB200-03 baseline at Week 104, alglucosidase alfa/placebo group switched to cipaglucosidase alfa/miglustat at Week 52
Excerpt: as §1, §2

adult subjects with LOPD [8] = assay: Study ATB200-07 (OLE): GSGC; assay type: in vivo, human; settings: for GSGC, mean BSL: Study ATB200-03 baseline, OLE-ES Population excluding Subject 4005-2511; for GSGC, mean 52-wk CFB: change from ATB200-03 baseline at Week 52, decrease indicates improvement; for GSGC, mean 52-wk CFB / GSGC, mean 104-wk CFB: OLE-ES excluding Subject 4005-2511; for GSGC, mean 104-wk CFB: change from ATB200-03 baseline at Week 104, alglucosidase alfa/placebo group switched to cipaglucosidase alfa/miglustat at Week 52
Excerpt: as §4

[9] = tested on: adult subjects with late-onset Pompe disease (LOPD); assay: Study ATB200-03 (PROPEL): urinary hexose tetrasaccharide (Hex4/Glc4); assay type: in vivo, human; settings: for mean change in urine Hex-4 after 52 weeks: combined ERT switch and ERT naïve population; for urinary Hex4 reduction vs alglucosidase alfa: week 52
[10] = OLE-ES Population, listed as cipaglucosidase alfa/miglustat
[11] = OLE-ES Population, continued cipaglucosidase alfa/miglustat
[12] = ERT-naïve, Study ATB200-03/07, excluding the outlier

Substance | Hex4, mean BSL (adult subjects with LOPD [1]) | Hex4, mean 52-wk CFB (adult subjects with LOPD [1]) | Hex4, mean 104-wk CFB (adult subjects with LOPD [1]) | Sitting FVC, mean BSL (adult subjects with LOPD [2]) | Sitting FVC, mean 52-wk CFB (adult subjects with LOPD [2]) | Sitting FVC, mean 104-wk CFB (adult subjects with LOPD [2]) | PROMIS-Physical Function, mean BSL (adult subjects with LOPD [3]) | PROMIS-Physical Function, mean 52-wk CFB (adult subjects with LOPD [3]) | PROMIS-Physical Function, mean 104-wk CFB (adult subjects with LOPD [3]) | parameters with statistically significant decline from baseline at Week 52 [4] | parameters with statistically significant improvement from baseline at Week 52 [4] | LC3 II level / autophagy, western blot (Gaa KO mice) | Wilcoxon rank sum test on sum of ranks for 6MWD and % predicted FVC: Mean Score [5] | Wilcoxon rank sum test on sum of ranks for 6MWD and % predicted FVC: Sum of Scores [5] | Wilcoxon rank sum test on sum of ranks for 6MWD and FVC: Mean Score [5] | Wilcoxon rank sum test on sum of ranks for 6MWD and FVC: Sum of Scores [5] | CK, mean BSL (adult subjects with LOPD [6]) | CK, mean 52-wk CFB (adult subjects with LOPD [6]) | CK, mean 104-wk CFB (adult subjects with LOPD [6]) | 6MWD, mean BSL (adult subjects with LOPD [7]) | further results
ATB200/miglustat: two-component therapy: cipaglucosidase alfa (ATB200) administered in conjunction with miglustat (AT2221), a stabilizer of cipaglucosidase alfa | 4.6 | −2.0 | −2.1 | 70.7 % predicted | −1.1 % predicted | −1.6 % predicted | 67.0 | 2.2 | 2.3 | SVC sitting | 6MWD, % predicted 6MWD, MMT lower extremities, MMT upper extremities, overall MMT, PROMIS-Physical Function, PROMIS-Fatigue, CK, and Hex4 | significant decrease in levels of LC3 II | 66.5 | 5587.5 | 66.5 | 5587.5 | 440.6 | −129.1 | −154.9 | 354.9 m | Hex4 course to Week 104 (adult subjects with LOPD [1]; [10]): CK and Hex4 declined substantially through Study ATB200-03, then stabilized through Study ATB200-07; also recorded: decreased substantially after subjects switched to cipaglucosidase alfa/miglustat through Week 104; sitting % predicted FVC course to Week 104 (adult subjects with LOPD [2]; [11]): showed a slight decline from baseline through Study ATB200-03, then stabilized through Week 104; LAMP1-positive vesicles in muscle fibers (Gaa KO mice; vastus lateralis): led to more fibers with normalized LAMP1 level; LC3-positive aggregates in muscle fibers (Gaa KO mice; vs alglucosidase alfa): preferentially reduced; dysferlin localisation in muscle fibers (Gaa KO mice; vs alglucosidase alfa): able to restore dysferlin to the sarcolemma in a greater number of muscle fibers; post hoc global test on 6MWD and % predicted FVC ([5]; Wilcoxon rank-sum on summed ranks, listed as cipaglucosidase alfa/miglustat): greater improvement in either 6MWD or FVC; also recorded: greater improvement in subjects treated with cipaglucosidase alfa/miglustat versus alglucosidase alfa/placebo; patient-level responder analyses 6MWD, FVC, MMT ([5]; thresholds ±6%, ±3%, ±7%, overall population, listed as cipaglucosidase alfa/miglustat): a greater proportion of subjects in the overall population treated with cipaglucosidase alfa/miglustat demonstrated clinically meaningful improvement and a smaller proportion demonstrated clinically meaningful worsening across these 3 endpoints; also recorded: significantly greater proportion of subjects with improvement on both domains; CK course to Week 104 (adult subjects with LOPD [6]; [10]): CK and Hex4 declined substantially through Study ATB200-03, then stabilized through Study ATB200-07; also recorded: declined substantially after subjects switched to cipaglucosidase alfa/miglustat through Week 104; 6MWD course to Week 104 (adult subjects with LOPD [7]; [11]): showed an improvement through Study ATB200-03, which was then maintained through Week 104; 6MWD, mean 52-wk CFB (adult subjects with LOPD [7]): 20.6 m; 6MWD, mean 104-wk CFB (adult subjects with LOPD [7]): 20.2 m; GSGC, mean BSL (adult subjects with LOPD [8]): 14.4; GSGC, mean 52-wk CFB (adult subjects with LOPD [8]): −0.6; GSGC, mean 104-wk CFB (adult subjects with LOPD [8]): −1.0; mean change in urine Hex-4 after 52 weeks [9]: −31.5%; urinary Hex4 reduction vs alglucosidase alfa [9]: reductions in CK and urinary Hex4 were significantly greater with ATB200/miglustat treatment at week 52; urinary Hex4 reduction vs alglucosidase alfa ([9]; listed as AT-GAA): significantly favored AT-GAA compared to alglucosidase alfa; urinary Hex4 reduction vs alglucosidase alfa ([9]; listed as cipaglucosidase alfa/miglustat): reductions in biomarkers of muscle damage (CK) and disease substrate (Hex4) also were significantly greater with cipaglucosidase alfa/miglustat compared with alglucosidase alfa
alglucosidase alfa [reference compound] | 7.0 | 1.6 | −2.7 | 69.5 % predicted | −3.6 % predicted | −3.6 % predicted | 67.9 | 0.3 | −0.4 | GSGC, FVC sitting, FVC supine, SVC sitting, and CK | not observed for any parameters | modest | 48.5 | 1793.5 | 50.4 | 1915.5 | 527.4 | 41.0 | −173.6 | 351.7 m | % Predicted FVC Baseline Mean (adult subjects with LOPD [2]; [12]): 79.1 % predicted; % Predicted FVC CFBL M12 (W 52) Mean (adult subjects with LOPD [2]; [12]): −4.0 % predicted; % Predicted FVC CFBL M24 (W 104) Mean (adult subjects with LOPD [2]; [12]): −3.1 % predicted; 6MWD, mean 52-wk CFB (adult subjects with LOPD [7]): 8.0 m; 6MWD, mean 104-wk CFB (adult subjects with LOPD [7]): 3.3 m; GSGC, mean BSL (adult subjects with LOPD [8]): 14.3; GSGC, mean 52-wk CFB (adult subjects with LOPD [8]): 0.9; GSGC, mean 104-wk CFB (adult subjects with LOPD [8]): 0.3; mean urinary Glc4 concentration at Week 52 ([9]; ERT-experienced patients (baseline 4.6 and 7.2 mmol/mol)): 9.1 mmol/mol; mean change in urine Hex-4 after 52 weeks [9]: +11.0%
